Experimental data taken from ChEMBL document CHEMBL2385047, “Synthesis and antifungal evaluation of pentyloxyl-diphenylisoxazoloyl pneumocandins and echinocandins” (Bioorg Med Chem Lett, 2013).
≈ marks a conversion by molar mass, not a printed value. Numbered stars: 1 amine (or outer) side, 2 acyl side, 3 side chain; on linkers, the order of the positions; unused ones are H or OH. Bridge positions count the residues as written; N and C are the ends. Square brackets hold non-standard residues; d marks the D form. Peptide text beside a SMILES is read from it. * marks the point of attachment. Orn(4R-OH,5R-OH) = O=C([C@H](C[C@@H](O)[C@@H](O)N[*:3])N[*:1])[*:2]; Tetradecanoyl(10R,12S-Me2) = CC[C@H](C)C[C@H](C)CCCCCCCCC(=O)*; hTyr(3S-OH,4S-OH) = N[C@H](C(=O)O)[C@H](O)[C@@H](O)c1ccc(O)cc1; Pro(3S-OH,4S-Me) = C[C@H]1CN[C@H](C(=O)O)[C@H]1O; X1 = CCCCCOc1ccc(-c2cc(-c3ccc(C(=O)*)cc3)no2)cc1; Gln(3R-OH) = NC(=O)C[C@@H](O)[C@H](N)C(=O)O; Pro(3S-OH) = O=C(O)[C@H]1NCC[C@@H]1O; Hyp = O=C(O)[C@@H]1C[C@@H](O)CN1

Assays:
[1] = tested on: Candida albicans; experiment: Antifungal activity against Candida albicans MY1055 infected in DBA/2 mouse assessed as reduction of log CFU in kidney administered 30 mins as ip tid post infection measured after 24 hrs; format: functional
[2] = target: T1, Beta-1,3-glucan synthase (Candida albicans, UniProt O13383); experiment: Inhibition of wild type Candida albicans 1,3-beta-D-glucan synthase using UDP[6,3H]-glucose as substrate after 60 mins by liquid scintillation counting analysis
T1 sequence (O13383 whole entry): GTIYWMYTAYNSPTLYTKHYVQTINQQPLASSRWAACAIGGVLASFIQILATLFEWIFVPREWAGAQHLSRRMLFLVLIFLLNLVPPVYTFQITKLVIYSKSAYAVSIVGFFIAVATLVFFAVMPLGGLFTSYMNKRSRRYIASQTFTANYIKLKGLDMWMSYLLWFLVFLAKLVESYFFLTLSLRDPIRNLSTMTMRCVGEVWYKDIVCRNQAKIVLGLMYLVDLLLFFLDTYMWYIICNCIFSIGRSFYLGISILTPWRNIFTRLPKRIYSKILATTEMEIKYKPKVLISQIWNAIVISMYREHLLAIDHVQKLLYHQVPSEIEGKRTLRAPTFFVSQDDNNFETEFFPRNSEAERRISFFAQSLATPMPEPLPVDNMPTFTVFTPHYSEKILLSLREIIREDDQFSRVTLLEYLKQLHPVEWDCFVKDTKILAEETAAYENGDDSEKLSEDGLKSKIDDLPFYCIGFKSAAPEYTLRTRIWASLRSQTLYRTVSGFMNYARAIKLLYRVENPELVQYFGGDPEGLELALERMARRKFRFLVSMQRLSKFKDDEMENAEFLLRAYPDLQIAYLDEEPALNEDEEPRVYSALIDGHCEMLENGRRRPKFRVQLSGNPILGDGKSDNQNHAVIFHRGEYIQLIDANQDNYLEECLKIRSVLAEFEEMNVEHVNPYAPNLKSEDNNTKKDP

[3] = tested on: Escherichia coli; experiment: Antibacterial activity against Escherichia coli ATCC 25922 assessed as growth inhibition after 24 hrs by NCCLS broth microdilution method; format: functional; conditions: ATCC 25922, 24 h, read-out: MIC100
[4] = tested on: Staphylococcus aureus; experiment: Antibacterial activity against methicillin-sensitive Staphylococcus aureus MB2865 assessed as growth inhibition after 24 hrs by NCCLS broth microdilution method; format: functional; conditions: MB2865, 24 h, read-out: MIC100
[5] = tested on: Candida albicans; experiment: Antifungal activity against Candida albicans NR3 assessed as growth inhibition after 24 hrs by NCCLS broth microdilution method; format: functional; conditions: NR3, 24 h; for MIC: read-out: MIC100
[6] = tested on: Candida albicans; experiment: Antifungal activity against Candida albicans CAI4-R1 assessed as growth inhibition after 24 hrs by NCCLS broth microdilution method; format: functional; conditions: CAI4-R1, 24 h; for MIC: read-out: MIC100
[7] = tested on: Candida albicans; experiment: Antifungal activity against wild type Candida albicans CAI4 assessed as growth inhibition after 24 hrs by NCCLS broth microdilution method; format: functional; conditions: CAI4, 24 h; for MIC: read-out: MIC100
[8] = tested on: Meyerozyma guilliermondii; experiment: Antifungal activity against wild type Candida guilliermondii CLY308 assessed as growth inhibition after 24 hrs by NCCLS broth microdilution method; format: functional; conditions: CLY308, 24 h; for MIC: read-out: MIC100
[9] = tested on: Aspergillus fumigatus; experiment: Antifungal activity against Aspergillus fumigatus MF5668 caspofungin spontaneous resistance mutant assessed as growth inhibition after 24 hrs by NCCLS broth microdilution method; format: functional; conditions: MF5668, 24 h; for minimal effective concentration: read-out: MEC
[10] = tested on: Cryptococcus neoformans; experiment: Antifungal activity against capsular wild type Cryptococcus neoformans MY2061 assessed as growth inhibition after 24 hrs by NCCLS broth microdilution method; format: functional; conditions: MY2061, 24 h, read-out: MIC100
[11] = tested on: Candida parapsilosis; experiment: Antifungal activity against wild type Candida parapsilosis ATCC 22019 assessed as growth inhibition after 24 hrs by NCCLS broth microdilution method; format: functional; conditions: Lodderomyces parapsilosis, ATCC 22019, 24 h; for MIC: read-out: MIC100
[12] = tested on: Pichia kudriavzevii; experiment: Antifungal activity against wild type Candida krusei CLY549 assessed as growth inhibition after 24 hrs by NCCLS broth microdilution method; format: functional; conditions: CLY549, 24 h; for MIC: read-out: MIC100
[13] = tested on: Clavispora lusitaniae; experiment: Antifungal activity against wild type Candida lusitaniae MY1396 assessed as growth inhibition after 24 hrs by NCCLS broth microdilution method; format: functional; conditions: MY1396, 24 h; for MIC: read-out: MIC100
[14] = tested on: Nakaseomyces glabratus; experiment: Antifungal activity against wild type Candida glabrata MY1381 assessed as growth inhibition after 24 hrs by NCCLS broth microdilution method; format: functional; conditions: MY1381, 24 h; for MIC: read-out: MIC100
[15] = tested on: Candida albicans; experiment: Antifungal activity against wild type Candida albicans MY1055 assessed as growth inhibition after 24 hrs by NCCLS broth microdilution method in presence of human serum; format: functional; conditions: MY1055, 24 h; for MIC: read-out: MIC100
[16] = tested on: Candida albicans; experiment: Antifungal activity against wild type Candida albicans MY1055 assessed as growth inhibition after 24 hrs by NCCLS broth microdilution method; format: functional; conditions: MY1055, 24 h; for MIC: read-out: MIC100

SMILES | ED90 [1] [mg/kg/day] | ED99 [1] [mg/kg/day] | MIC [3] [µg/mL] | MIC [4] [µg/mL] | MIC [5] [µg/mL] | MIC80 [6] [µg/mL] | MIC [6] [µg/mL] | MIC80 [7] [µg/mL] | MIC [7] [µg/mL] | MIC80 [8] [µg/mL] | MIC [8] [µg/mL] | MIC80 [9] [µg/mL] | minimal effective concentration [9] [µg/mL] | MIC [10] [µg/mL] | MIC80 [11] [µg/mL] | MIC [11] [µg/mL] | MIC80 [12] [µg/mL] | MIC [12] [µg/mL] | MIC80 [13] [µg/mL] | MIC [13] [µg/mL] | also measured
CCCCCOc1ccc(-c2cc(-c3ccc(C(=O)N[C@H]4C[C@@H](O)[C@@H](O)NC(=O)[C@@H]5[C@@H](O)[C@@H](C)CN5C(=O)[C@H]([C@H](O)CC(N)=O)NC(=O)[C@H]([C@H](O)[C@@H](O)c5ccc(O)cc5)NC(=O)[C@@H]5C[C@@H](O)CN5C(=O)[C@H]([C@@H](C)O)NC4=O)cc3)no2)cc1 (X1-[Orn(4R-OH,5R-OH)]T[Hyp][hTyr(3S-OH,4S-OH)][Gln(3R-OH)][Pro(3S-OH,4S-Me)]; lactam 1-C) | 0.12 | 0.82 | > 32 | > 32 | 4 (≈ 3.41 µM) | 0.5 (≈ 0.426 µM) | 2 (≈ 1.7 µM) | < 0.03 | 0.06 (≈ 0.0511 µM) | 0.5 (≈ 0.426 µM) | 2 (≈ 1.7 µM) | < 0.03 | > 32 | > 32 | 2 (≈ 1.7 µM) | 32 (≈ 27.3 µM) | 0.125 (≈ 0.106 µM) | 1 (≈ 0.852 µM) | < 0.03 | 0.125 (≈ 0.106 µM) | IC50 [2]: 35 nM; MIC80 [5]: 2 µg/mL (≈ 1.7 µM); MIC80 [14]: 0.06 µg/mL (≈ 0.0511 µM); MIC [14]: 0.25 µg/mL (≈ 0.213 µM); MIC80 [15]: 0.25 µg/mL; MIC [15]: 1 µg/mL; MIC80 [16]: < 0.03 µg/mL; MIC [16]: 0.06 µg/mL (≈ 0.0511 µM)
CC[C@H](C)C[C@H](C)CCCCCCCCC(=O)N[C@H]1C[C@@H](O)[C@@H](O)NC(=O)[C@@H]2[C@@H](O)CCN2C(=O)[C@H]([C@H](O)CC(N)=O)NC(=O)[C@H]([C@H](O)[C@@H](O)c2ccc(O)cc2)NC(=O)[C@@H]2C[C@@H](O)CN2C(=O)[C@H]([C@@H](C)O)NC1=O ({Tetradecanoyl(10R,12S-Me2)}-[Orn(4R-OH,5R-OH)]T[Hyp][hTyr(3S-OH,4S-OH)][Gln(3R-OH)][Pro(3S-OH)]; lactam 1-C) | 2.71 | 13 | > 32 | > 32 | > 32 | 16 (≈ 15 µM) | 32 (≈ 30 µM) | < 0.03 | 0.5 (≈ 0.469 µM) | 4 (≈ 3.76 µM) | > 32 | 4 (≈ 3.76 µM) | > 32 | > 32 | 8 (≈ 7.51 µM) | > 32 | 8 (≈ 7.51 µM) | 32 (≈ 30 µM) | 1 (≈ 0.939 µM) | 4 (≈ 3.76 µM) | MIC [14]: 4 µg/mL (≈ 3.76 µM); MIC80 [15]: 16 µg/mL; MIC [15]: 32 µg/mL; MIC80 [16]: 0.125 µg/mL (≈ 0.117 µM); MIC [16]: 0.5 µg/mL (≈ 0.469 µM)
CC[C@H](C)C[C@H](C)CCCCCCCCC(=O)N[C@H]1C[C@@H](O)[C@@H](O)NC(=O)[C@@H]2[C@@H](O)[C@@H](C)CN2C(=O)[C@H]([C@H](O)CC(N)=O)NC(=O)[C@H]([C@H](O)[C@@H](O)c2ccc(O)cc2)NC(=O)[C@@H]2C[C@@H](O)CN2C(=O)[C@H]([C@@H](C)O)NC1=O ({Tetradecanoyl(10R,12S-Me2)}-[Orn(4R-OH,5R-OH)]T[Hyp][hTyr(3S-OH,4S-OH)][Gln(3R-OH)][Pro(3S-OH,4S-Me)]; lactam 1-C) | 1.15 | 6.77 | > 32 | > 32 | > 32 | 8 (≈ 7.41 µM) | 16 (≈ 14.8 µM) | < 0.03 | 0.5 (≈ 0.463 µM) | 4 (≈ 3.71 µM) | 32 (≈ 29.7 µM) | 4 (≈ 3.71 µM) | > 32 | > 32 | 8 (≈ 7.41 µM) | > 32 | 4 (≈ 3.71 µM) | 8 (≈ 7.41 µM) | 1 (≈ 0.927 µM) | 4 (≈ 3.71 µM) | IC50 [2]: 17.6 nM; MIC80 [5]: 32 µg/mL (≈ 29.7 µM); MIC80 [14]: 2 µg/mL (≈ 1.85 µM); MIC [14]: 4 µg/mL (≈ 3.71 µM); MIC80 [15]: 16 µg/mL; MIC [15]: 32 µg/mL; MIC80 [16]: 0.125 µg/mL (≈ 0.116 µM); MIC [16]: 0.5 µg/mL (≈ 0.463 µM)
